Assay [1] deals with cytoplasmic domain of PDGFR. Further details: method as in PMID 10048786. As to conditions: in vitro; read-out: IC50, autophosphorylation of the cytoplasmic domain of PDGFR in vitro; cited from earlier work.
Assay [2] relates to panel of 224 recombinant kinases. Also noted: method as in PMID 26501955. As to conditions: Nanosyn; cited from earlier work.
Another assay concerns the target FLT3 (Homo sapiens, UniProt P36888). The assay is described as follows: Eurofins kinase enzymatic radiometric assay. The class given is biochemical. Also noted: purchased Eurofins. As to conditions: Km of ATP, 9-point curve in duplicate. The text has this:
Due to our interest in the activity of GW296115 on several understudied IDG kinases, we collected full dose–response curves for all wild type kinases inhibited ≥ 75% in the DiscoverX panel that were offered by Eurofins. Having data in orthogonal formats is a powerful way to confirm inhibitory activity and adds rigor to our results. Eurofins has kinase enzymatic radiometric assays for 35 of the kinases on this list (Table S2) and a kinase enzymatic LANCE assay for one additional kinase (MAP2K5/MEK5).
Eurofins kinase enzymatic radiometric assays were carried out at the Km of ATP in dose–response (9-pt curve in duplicate) for each kinase for which it was offered.

A further assay has as its target AXL (Homo sapiens, UniProt P30530). The experiment in a line: DiscoverX scanMAX competition binding assay. Further details: purchased Eurofins DiscoverX Corporation. The text has this:
(§1) Based on its narrow profile when tested in the combined Nanosyn and TSA panels, GW296115 was included in the recently released Kinase Chemogenomic Set (KCGS)[15]. All of the data presented in the Introduction section was collected prior to the inclusion of GW296115 in KCGS and everything that follows has been subsequently generated. Since its inclusion in PKIS and more recently KCGS, we have carried out a broader round of screening at DiscoverX. This profiling data has not been previously released and is reported here for the first time. GW296115 was profiled against 403 wild type human kinases at 1 μM using the DiscoverX scanMAX screening platform, which employs an active site-directed competition binding assay to quantitatively measure interactions between test compounds and kinases, [16]. GW296115 inhibited 25 kinases > 90% at 1 μM, resulting in a selectivity index (S10) of 0.062 at 1 μM (Table S2, Fig. 1C)[17].
(§2) The scanMAX assays were performed at Eurofins DiscoverX Corporation as previously described.

Another assay has as its target T1, BRSK1 (Homo sapiens, UniProt Q8TDC3).
T1 sequence (Q8TDC3 1-778): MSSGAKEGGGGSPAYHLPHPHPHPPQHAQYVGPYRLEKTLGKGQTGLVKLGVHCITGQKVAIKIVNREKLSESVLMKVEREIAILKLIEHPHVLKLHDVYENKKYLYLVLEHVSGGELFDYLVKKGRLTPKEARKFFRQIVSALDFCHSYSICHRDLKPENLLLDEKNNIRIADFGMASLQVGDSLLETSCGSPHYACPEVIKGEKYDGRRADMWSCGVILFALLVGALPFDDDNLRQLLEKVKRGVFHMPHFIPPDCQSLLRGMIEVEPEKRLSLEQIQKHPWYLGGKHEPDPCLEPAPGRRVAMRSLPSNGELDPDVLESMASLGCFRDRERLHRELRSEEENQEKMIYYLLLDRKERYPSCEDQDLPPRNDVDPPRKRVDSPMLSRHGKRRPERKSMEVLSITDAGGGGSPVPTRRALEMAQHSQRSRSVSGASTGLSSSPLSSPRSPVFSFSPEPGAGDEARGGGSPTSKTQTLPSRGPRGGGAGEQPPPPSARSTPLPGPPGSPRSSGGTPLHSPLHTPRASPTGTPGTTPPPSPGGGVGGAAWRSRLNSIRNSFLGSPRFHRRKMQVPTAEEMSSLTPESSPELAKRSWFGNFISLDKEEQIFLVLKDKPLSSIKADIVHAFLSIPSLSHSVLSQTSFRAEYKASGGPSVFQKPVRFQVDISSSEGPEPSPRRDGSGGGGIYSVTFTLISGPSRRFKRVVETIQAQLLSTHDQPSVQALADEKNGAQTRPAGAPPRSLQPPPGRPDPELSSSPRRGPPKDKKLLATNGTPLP
The experiment in a line: DiscoverX scanMAX competition binding assay. Further details: purchased Eurofins DiscoverX Corporation.
Description: as §1, §2

The target of a further assay is T2, BRSK2 (Homo sapiens, UniProt Q8IWQ3).
T2 sequence (Q8IWQ3 1-736): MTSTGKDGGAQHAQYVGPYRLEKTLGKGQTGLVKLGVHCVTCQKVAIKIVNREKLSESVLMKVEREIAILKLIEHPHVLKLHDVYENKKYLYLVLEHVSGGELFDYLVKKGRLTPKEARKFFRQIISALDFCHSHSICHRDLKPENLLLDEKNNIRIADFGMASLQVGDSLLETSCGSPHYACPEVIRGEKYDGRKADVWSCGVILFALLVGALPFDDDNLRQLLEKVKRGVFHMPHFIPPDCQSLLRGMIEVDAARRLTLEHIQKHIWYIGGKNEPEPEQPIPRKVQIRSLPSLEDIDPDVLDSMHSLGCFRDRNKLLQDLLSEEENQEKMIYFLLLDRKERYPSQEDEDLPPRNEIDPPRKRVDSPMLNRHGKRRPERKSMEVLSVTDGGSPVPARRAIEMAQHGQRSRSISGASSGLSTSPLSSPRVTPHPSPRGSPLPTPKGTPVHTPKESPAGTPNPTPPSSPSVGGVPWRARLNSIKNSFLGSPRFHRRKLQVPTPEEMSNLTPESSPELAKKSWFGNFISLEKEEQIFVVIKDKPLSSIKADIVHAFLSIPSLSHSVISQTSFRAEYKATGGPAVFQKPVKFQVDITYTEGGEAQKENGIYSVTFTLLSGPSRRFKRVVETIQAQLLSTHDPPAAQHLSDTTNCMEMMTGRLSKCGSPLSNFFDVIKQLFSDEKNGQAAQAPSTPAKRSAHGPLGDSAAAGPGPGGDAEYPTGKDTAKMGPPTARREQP
The experiment in a line: DiscoverX scanMAX competition binding assay. Also noted: purchased Eurofins DiscoverX Corporation.
Description: as §1, §2

The next assay concerns the target DAPK1 (Homo sapiens, UniProt P53355). The experiment in a line: DiscoverX scanMAX competition binding assay. Further details: purchased Eurofins DiscoverX Corporation.
Description: as §1, §2

The target of the next assay is DCLK3/DCAMKL3 (Homo sapiens, UniProt Q9C098). The experiment in a line: DiscoverX scanMAX competition binding assay. Further details: purchased Eurofins DiscoverX Corporation.
DCLK3/DCAMKL3, sequence (Q9C098 whole entry): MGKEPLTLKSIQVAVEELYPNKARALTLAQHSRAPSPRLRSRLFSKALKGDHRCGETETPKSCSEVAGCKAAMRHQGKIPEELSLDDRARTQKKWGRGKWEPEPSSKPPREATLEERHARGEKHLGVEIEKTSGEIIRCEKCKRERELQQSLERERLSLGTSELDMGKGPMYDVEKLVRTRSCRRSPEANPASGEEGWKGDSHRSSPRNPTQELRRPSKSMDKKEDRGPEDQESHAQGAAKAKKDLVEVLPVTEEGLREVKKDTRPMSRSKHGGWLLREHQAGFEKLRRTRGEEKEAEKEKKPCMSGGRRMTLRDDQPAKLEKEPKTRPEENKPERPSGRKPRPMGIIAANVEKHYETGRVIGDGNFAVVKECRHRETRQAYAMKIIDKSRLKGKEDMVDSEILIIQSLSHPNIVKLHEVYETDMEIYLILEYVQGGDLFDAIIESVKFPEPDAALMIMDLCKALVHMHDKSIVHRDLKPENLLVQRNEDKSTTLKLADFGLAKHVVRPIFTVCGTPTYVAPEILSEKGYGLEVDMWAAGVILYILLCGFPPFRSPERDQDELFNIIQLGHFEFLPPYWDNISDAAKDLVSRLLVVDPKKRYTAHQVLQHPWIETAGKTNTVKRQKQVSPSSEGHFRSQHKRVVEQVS
Description: as §1, §2

In a further assay the target is PHKG1 (Homo sapiens, UniProt Q16816). The assay is described as follows: DiscoverX scanMAX competition binding assay. Also noted: purchased Eurofins DiscoverX Corporation.
PHKG1, sequence (Q16816 whole entry): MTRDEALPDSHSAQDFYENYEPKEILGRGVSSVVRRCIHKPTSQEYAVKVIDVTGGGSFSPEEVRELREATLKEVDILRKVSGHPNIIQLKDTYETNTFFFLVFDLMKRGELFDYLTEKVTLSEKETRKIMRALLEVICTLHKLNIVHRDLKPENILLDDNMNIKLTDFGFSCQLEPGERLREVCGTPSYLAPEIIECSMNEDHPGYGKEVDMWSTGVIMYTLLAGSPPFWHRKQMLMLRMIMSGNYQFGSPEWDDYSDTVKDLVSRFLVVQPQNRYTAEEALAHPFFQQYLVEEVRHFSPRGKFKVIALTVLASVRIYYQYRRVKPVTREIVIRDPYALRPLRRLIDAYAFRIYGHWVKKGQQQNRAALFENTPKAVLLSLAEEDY
Description: as §1, §2

For another assay, the target named is PIM2 (Homo sapiens, UniProt Q9P1W9). The assay is described as follows: DiscoverX scanMAX competition binding assay. Also noted: purchased Eurofins DiscoverX Corporation.
PIM2, sequence (Q9P1W9 whole entry): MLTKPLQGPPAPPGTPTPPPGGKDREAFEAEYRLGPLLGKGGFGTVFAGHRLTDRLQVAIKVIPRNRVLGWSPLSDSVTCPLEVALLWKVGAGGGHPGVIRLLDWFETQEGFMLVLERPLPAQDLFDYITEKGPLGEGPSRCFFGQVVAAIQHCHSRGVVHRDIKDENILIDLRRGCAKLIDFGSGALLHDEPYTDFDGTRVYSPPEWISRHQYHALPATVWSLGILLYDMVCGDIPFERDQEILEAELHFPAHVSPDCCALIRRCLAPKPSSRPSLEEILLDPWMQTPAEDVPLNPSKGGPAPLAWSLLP
Description: as §1, §2

The target of a further assay is ROS1 (Homo sapiens, UniProt P08922). The assay is described as follows: DiscoverX scanMAX competition binding assay. Also noted: purchased Eurofins DiscoverX Corporation.
Description: as §1, §2

Consider one compound from article PMC7522982, “PKIS deep dive yields a chemical starting point for dark kinases and a cell active BRSK2 inhibitor” (Scientific Reports, 2020).

Each structure is given as a SMILES string. Some results are limits rather than exact numbers.

DAPK1, sequence (P53355 whole entry): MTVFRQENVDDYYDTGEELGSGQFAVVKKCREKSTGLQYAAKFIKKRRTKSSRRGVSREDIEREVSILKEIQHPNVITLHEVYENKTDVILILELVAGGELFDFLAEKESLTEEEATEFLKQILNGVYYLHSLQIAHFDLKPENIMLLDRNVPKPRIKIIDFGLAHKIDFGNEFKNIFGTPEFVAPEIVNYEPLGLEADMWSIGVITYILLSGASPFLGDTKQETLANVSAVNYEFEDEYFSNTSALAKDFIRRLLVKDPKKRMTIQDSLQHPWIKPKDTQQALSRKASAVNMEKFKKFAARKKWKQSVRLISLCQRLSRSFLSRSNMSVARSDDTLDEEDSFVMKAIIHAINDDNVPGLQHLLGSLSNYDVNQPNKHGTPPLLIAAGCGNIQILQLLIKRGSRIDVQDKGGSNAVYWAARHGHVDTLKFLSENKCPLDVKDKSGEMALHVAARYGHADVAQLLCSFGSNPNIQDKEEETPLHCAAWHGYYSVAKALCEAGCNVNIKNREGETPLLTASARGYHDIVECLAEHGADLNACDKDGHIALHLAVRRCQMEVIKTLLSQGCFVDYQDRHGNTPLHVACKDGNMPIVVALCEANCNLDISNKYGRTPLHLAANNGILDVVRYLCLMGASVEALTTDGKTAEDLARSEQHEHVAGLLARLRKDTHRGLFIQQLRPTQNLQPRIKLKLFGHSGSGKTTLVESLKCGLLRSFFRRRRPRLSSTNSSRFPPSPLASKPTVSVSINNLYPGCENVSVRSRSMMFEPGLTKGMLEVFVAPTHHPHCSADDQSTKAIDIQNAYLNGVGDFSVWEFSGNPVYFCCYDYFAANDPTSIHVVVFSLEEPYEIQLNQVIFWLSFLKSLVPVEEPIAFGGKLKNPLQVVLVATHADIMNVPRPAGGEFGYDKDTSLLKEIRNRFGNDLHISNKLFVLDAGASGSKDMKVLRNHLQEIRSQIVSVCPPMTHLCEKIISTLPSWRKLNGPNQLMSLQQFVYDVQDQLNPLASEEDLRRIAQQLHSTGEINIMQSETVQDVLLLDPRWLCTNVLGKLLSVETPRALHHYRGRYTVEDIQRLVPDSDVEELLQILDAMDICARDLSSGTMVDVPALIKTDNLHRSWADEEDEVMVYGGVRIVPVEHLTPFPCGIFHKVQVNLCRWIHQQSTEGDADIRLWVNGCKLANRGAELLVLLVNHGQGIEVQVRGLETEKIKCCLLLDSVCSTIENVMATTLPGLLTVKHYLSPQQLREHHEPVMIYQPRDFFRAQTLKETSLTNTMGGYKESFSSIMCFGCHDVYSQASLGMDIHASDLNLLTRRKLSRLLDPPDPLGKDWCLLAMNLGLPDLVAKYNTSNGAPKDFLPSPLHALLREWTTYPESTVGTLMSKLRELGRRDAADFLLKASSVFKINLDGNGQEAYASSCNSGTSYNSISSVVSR
FLT3, sequence (P36888 27-993): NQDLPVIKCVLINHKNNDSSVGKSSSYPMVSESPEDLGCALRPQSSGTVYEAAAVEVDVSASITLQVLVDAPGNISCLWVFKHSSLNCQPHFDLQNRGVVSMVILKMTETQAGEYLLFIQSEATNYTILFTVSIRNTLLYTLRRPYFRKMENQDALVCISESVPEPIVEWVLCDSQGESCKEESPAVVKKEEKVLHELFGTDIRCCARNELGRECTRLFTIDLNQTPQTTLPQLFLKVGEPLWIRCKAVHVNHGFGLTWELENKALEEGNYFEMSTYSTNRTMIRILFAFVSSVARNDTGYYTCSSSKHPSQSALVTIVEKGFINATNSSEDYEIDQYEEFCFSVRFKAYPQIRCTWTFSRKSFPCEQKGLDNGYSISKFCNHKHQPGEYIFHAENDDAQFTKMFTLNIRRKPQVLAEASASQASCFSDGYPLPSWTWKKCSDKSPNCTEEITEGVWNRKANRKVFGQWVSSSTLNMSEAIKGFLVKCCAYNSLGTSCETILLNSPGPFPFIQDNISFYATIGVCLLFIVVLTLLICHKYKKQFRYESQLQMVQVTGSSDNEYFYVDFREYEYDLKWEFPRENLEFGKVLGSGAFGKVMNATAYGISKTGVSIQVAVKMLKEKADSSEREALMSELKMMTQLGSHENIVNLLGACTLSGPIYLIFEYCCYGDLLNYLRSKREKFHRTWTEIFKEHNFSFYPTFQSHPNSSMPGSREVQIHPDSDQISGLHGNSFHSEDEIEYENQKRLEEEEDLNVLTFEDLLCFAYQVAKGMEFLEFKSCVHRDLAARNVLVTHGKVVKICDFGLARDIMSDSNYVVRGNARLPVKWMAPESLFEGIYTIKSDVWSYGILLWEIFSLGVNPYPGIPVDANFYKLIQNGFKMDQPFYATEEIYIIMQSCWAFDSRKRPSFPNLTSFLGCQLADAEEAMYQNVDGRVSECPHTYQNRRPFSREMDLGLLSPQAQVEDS
AXL, sequence (P30530 26-894): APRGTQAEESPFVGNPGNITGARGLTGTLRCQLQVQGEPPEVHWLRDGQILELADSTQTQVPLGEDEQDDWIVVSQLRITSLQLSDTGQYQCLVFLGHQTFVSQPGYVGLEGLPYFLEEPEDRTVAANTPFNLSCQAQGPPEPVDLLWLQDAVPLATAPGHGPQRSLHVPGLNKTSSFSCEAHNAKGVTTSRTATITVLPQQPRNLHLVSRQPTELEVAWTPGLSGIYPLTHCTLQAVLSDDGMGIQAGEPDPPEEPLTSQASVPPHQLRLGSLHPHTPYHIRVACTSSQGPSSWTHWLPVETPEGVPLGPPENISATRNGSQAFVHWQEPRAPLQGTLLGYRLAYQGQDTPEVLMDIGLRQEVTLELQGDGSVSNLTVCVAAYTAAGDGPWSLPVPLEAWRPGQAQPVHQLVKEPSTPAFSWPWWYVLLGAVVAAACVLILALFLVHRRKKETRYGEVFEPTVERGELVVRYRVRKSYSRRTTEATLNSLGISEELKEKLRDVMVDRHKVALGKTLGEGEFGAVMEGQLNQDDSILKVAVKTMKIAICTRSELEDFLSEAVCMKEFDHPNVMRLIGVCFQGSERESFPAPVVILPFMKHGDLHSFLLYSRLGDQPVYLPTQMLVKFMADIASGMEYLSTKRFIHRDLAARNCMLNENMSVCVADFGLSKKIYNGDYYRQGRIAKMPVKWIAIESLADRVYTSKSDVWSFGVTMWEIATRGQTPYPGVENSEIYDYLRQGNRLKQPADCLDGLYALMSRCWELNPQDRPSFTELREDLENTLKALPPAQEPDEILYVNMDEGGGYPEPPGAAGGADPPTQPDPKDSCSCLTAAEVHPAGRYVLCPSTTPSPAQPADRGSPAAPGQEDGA

One may read the IC50 as the midpoint of a concentration-inhibition curve. For orientation: inhibition means how much of the control response was suppressed. `COc1ccc2[nH]c3c4[nH]c5ccc(OC)cc5c4c4c(c3c2c1)C(=O)NC4=O` [GW296115]: the results for the half-inhibitory concentration (IC50) (in assay [1]; on FLT3) were 1800 ± 120 nM and 37 nM, respectively. Further, in assay [2], the “inhibition at 100 nM of the 3 kinases inhibited > 90% at 1 μM” value is recorded as more than 70%. Besides, the inhibition at 1 µM was determined as 75% on AXL; 82% at BRSK1; 83% at BRSK2; 78% at DAPK1; 83% on DCLK3/DCAMKL3; 82% on PHKG1. Moreover, the figures for the inhibition at 1 µM at PIM2 and at ROS1 were 83% and 76%, respectively.
